# Reference: US9067898B1, “Isothiazole derivatives as GPR120 agonists for the treatment of type II diabetes” (Janssen Pharmaceutica NV, priority 2014, dated 2015)
# Molecular target: T1, Human GPR120 short form (Homo sapiens, UniProt Q5NUL3)
# T1 construct: expressed in transfected cells
# T1 sequence (Q5NUL3 1-361): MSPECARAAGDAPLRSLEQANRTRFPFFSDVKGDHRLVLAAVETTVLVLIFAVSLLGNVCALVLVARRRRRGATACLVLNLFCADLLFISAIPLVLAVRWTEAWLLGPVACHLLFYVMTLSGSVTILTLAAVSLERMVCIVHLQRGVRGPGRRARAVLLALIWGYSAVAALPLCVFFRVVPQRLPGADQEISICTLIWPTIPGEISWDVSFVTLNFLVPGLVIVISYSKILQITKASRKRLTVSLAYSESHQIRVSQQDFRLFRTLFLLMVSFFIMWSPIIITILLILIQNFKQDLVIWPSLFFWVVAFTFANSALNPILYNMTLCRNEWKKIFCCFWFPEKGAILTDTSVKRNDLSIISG
# Assay: Human GPR120 calcium flux assay (FLIPR), Procedure Calcium A
# Assay type: cell-based
# Settings: HEK-293 cells expressing human GPR120 short form, 2500 cells/well; read-out: GPR120 Ca2+ Assay A EC50
# Description: This in vitro assay serves to assess test compound agonist activity against the short splice variant (SVS with Accession number NM_001195755.1 confirmed by sequencing data) of the GPR120 receptor. The Human Short splice variant #2 (NM_001195755.1) is missing an in-frame coding exon compared to variant 1 (the Human Long splice variant NM_181745.3), resulting in a shorter isoform (GPR120-S) lacking a 16 aa protein segment compared to isoform GPR120-L. The assay platform utilizes HEK-293 cells stably transfected to express the Human GPR120 short form. These cells are first loaded with the Ca^+2 sensitive dye, Fluo-4 NW. Upon stimulation, intracellular released Ca^+2 can bind to the dye and alter its fluorescence intensity. This increase in fluorescence signal, and thus the flux in intracellular [Ca^2+], is detected and quantitated by fluorescence imaging using a FLIPR reader. The effect of the agonist is measured as a function of concentration and used to calculate an EC50 based upon a response curve.
# In this procedure 2500 cells/well were employed.
# A Human GPR120 clone (Genbank accession number NM_001195755.1) was placed into the pcDNA3.1 mammalian expression vector carrying the neomycin resistance gene. A stable mammalian cell was generated by placing the above clone into a HEK293 background. Clonal cells responding to long chain fatty acids had expression levels of GPR120 confirmed by RT-qPCR. Human HEK-GPR120 cells were cultured in Dulbecco's Modified Eagle's Medium (DMEM)/F12 medium supplemented with 10% fetal bovine serum (FBS), 1% L-Glutamine and 1% penicillin/streptomycin and 0.5 mg/ml G-418. Cells were split 2 times a week to keep the cells in the log-phase growth.
# In preparation for the assay, HEK cells stably transfected with Human GPR120 (2.5K cells per well in 25 uL growth medium) were seeded into 384-well plates and then incubated overnight (37° C., 5% CO2). The next day, the media was changed to 20 μL assay buffer and the cell starved for 1 h at 37° C. The dye loading solution (2× dye) was prepared using 10 mL assay buffer, 100 μL of 250 mM probenecid, 1 bottle of Component A, and 20 μl of dye in DMSO. Twenty μL of the 2× dye loading buffer was then added to each well. The plates were incubated at 37° C. for 30 min, then at room temperature for an additional 15 minutes, before performing the assay on FLIPR. Test compounds were prepared in assay buffer (2 uL of cpd+198 uL assay buffer, final DMSO in assay plate is 0.2%) at the desired concentration, more particularly at 100, 50, 25, 12.5, 6.25, 3.125, 1.562, 0.781, 0.391, 0.195, 0.098, 0.049, 0.024 and 0.012 μM.
# The assay was performed on a FLIPR plate reader using the following parameters. Baseline was read for 10 seconds at 1 sec intervals. The program was set to transfer 10 μL of ligand from compound plate to cell plate after baseline reading. Aspiration was executed at: 10 μL/sec speed, 4.6 μL height; Dispensing was executed at: 30 μL/sec speed, 45 μL height. After compound addition, each well was read for 300 sec, with measurements collected at 1 sec intervals.
# The kinetic data from the FLIPR was based upon a 5 minute window for data collection. The fluorescence of each sample well was used for individual calculations of a normalized RFU value, which was defined as maximum response minus the minimum response. The normalized fluorescence reading (RFU) was calculated as follows: RFU=Fmax−Fmin The data were fitted to a sigmoidal dose-response curve with a variable Hill slope (<2) using nonlinear regression with GraphPad Prism 5.0 to calculate the EC50 values. The Fitting Equation was: Y=Bottom+(Top−Bottom)/(1+10^((Log EC50−X)*HillSlope)), where X is the log of the concentration and Y is the response.
row,EC50 [nM],Compound
1,923,"CCc1ccc(-c2nsc(OC)c2COc2ccc(CCC(=O)O)c(C)c2C)cc1 [Cpd 228, 3-(4-[[3-(4-ethylphenyl)-5-methoxy-1,2-thiazol-4-yl]methoxy]-2,3-dimethylphenyl)propanoic acid]"
2,496,"Cc1c(CCC(=O)O)ccc(OCc2csnc2-c2ccc(Cl)s2)c1C [Cpd 204, 3-(4-((3-(5-chlorothiophen-2-yl)isothiazol-4-yl)methoxy)-2,3-dimethylphenyl)propanoic acid]"
3,468,"O=C(O)CCc1cc(F)c(OCc2csnc2-c2ccc(Cl)s2)c(F)c1 [Cpd 202, 3-(4-((3-(5-chlorothiophen-2-yl)isothiazol-4-yl)methoxy)-3,5-difluorophenyl)propanoic acid]"
4,453,"CCc1ccc(-c2nsc(C(C)(F)F)c2COc2ccc(CCC(=O)O)c(C)c2C)cc1 [Cpd 200, 3-(4-[[5-(1,1-difluoroethyl)-3-(4-ethylphenyl)-1,2-thiazol-4-yl]methoxy]-2,3-dimethylphenyl)propanoic acid]"
5,702,"CCc1ccc(-c2nsc(C(F)(F)F)c2COc2ccc3c(c2)OCC3CCO)cc1 (stereo not drawn) [Cpd 220, 2-(6-[[3-(4-ethylphenyl)-5-(trifluoromethyl)-5H-1[3],2-thiazol-4-yl]methoxy]-2,3-dihydro-1-benzofuran-3-yl)ethan-1-ol]"

# The remaining lines, values behind:
row,Compound,EC50 [nM]
1,"CCc1ccc(-c2nsc(C(F)(F)F)c2COc2ccc3c(c2)CCC3CC(=O)O)cc1 (stereo not drawn) [Cpd 176, 2-(5-[[3-(4-ethylphenyl)-5-(trifluoromethyl)-1,2-thiazol-4-yl]methoxy]-2,3-dihydro-1H-inden-1-yl)acetic acid]",261
2,"OCCCc1cc(F)c(OCc2sc(F)cc2-c2ccc(Cl)cc2)c(F)c1 [Cpd 18, 3-(4-[[3-(4-chlorophenyl)-5-fluorothiophen-2-yl]methoxy]-3,5-difluorophenyl)propan-1-ol]",518
3,"O=C(O)CCc1cc(F)c(OCc2sc(Cl)cc2-c2ccc(Cl)cc2)c(F)c1 [Cpd 10, 3-(4-[[5-chloro-3-(4-chlorophenyl)thiophen-2-yl]methoxy]-3,5-difluorophenyl)propanoic acid]",123
4,"CCc1ccc(-c2cc(F)sc2COc2ccc(CCCO)c(F)c2F)cc1 [Cpd 17, 3-(4-[[3-(4-ethylphenyl)-5-fluorothiophen-2-yl]methoxy]-2,3-difluorophenyl)propan-1-ol]",406
5,"Cc1cc(OCc2c(-c3ccc(Cl)cc3)nsc2C(F)(F)F)c(F)cc1CCC(=O)O [Cpd 125, 3-(4-((3-(4-chlorophenyl)-5-(trifluoromethyl)isothiazol-4-yl)methoxy)-5-fluoro-2-methylphenyl)propanoic acid]",121
6,"CCc1ccc(-c2cc(C(F)(F)F)sc2COc2ccc(CCC(=O)O)c(F)c2F)cc1 [Cpd 21, 3-(4-((3-(4-ethylphenyl)-5-(trifluoromethyl)thiophen-2-yl)methoxy)-2,3-difluorophenyl)propanoic acid]",788
7,"CCc1ccc(-c2nsc(C3CC3)c2COc2ccc(CCC(=O)O)c(C)c2C)cc1 [Cpd 149, 3-(4-[[5-cyclopropyl-3-(4-ethylphenyl)-1,2-thiazol-4-yl]methoxy]-2,3-dimethylphenyl)propanoic acid]",167
8,"Cc1c(CCC(=O)O)ccc(OCc2sc(Cl)cc2-c2ccc(Cl)cc2)c1C [Cpd 6, 3-(4-[[5-chloro-3-(4-chlorophenyl)thiophen-2-yl]methoxy]-2,3-dimethylphenyl) propanoic acid]",90
9,"Cc1c(CCC(=O)O)ccc(OCc2c(-c3ccc(Cl)cc3F)csc2C(F)(F)F)c1C [Cpd 59, 3-(4-((4-(4-chloro-2-fluorophenyl)-2-(trifluoromethyl)thiophen-3-yl)methoxy)-2,3-dimethylphenyl)propanoic acid]",348
10,"CCc1ccc(-c2csc(C(F)(F)F)c2COc2ccc(CCC(=O)O)c(C)c2C)cc1 [Cpd 54, 3-(4-((4-(4-ethylphenyl)-2-(trifluoromethyl)thiophen-3-yl)methoxy)-2,3-dimethylphenyl)propanoic acid]",199
